Test results from PubChem BioAssay AID1645865 (Buhrlage Lab, Dana-Farber Cancer Institute and Novartis …, 2021).
Activity calls are given as the source filed them.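 Rule for the calls: active = maximal inhibition of the USP30 enzyme reaching 30% or more across the dose series; inactive = the rest.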

Each compound was assayed against Ubiquitin carboxyl-terminal hydrolase 30 (Homo sapiens) (UniProt Q70CQ3) (assay: ubiquitin-specific protease 30 DUB inhibitors, concentration-effect, biochemical, validation of primary actives (AID 1645865)). Conditions: purified USP30, Ub-rhodamine cleavage, fluorescence, 2 h.
Chain of Ubiquitin carboxyl-terminal hydrolase 30 (Homo sapiens) (Q70CQ3 whole entry, looked up): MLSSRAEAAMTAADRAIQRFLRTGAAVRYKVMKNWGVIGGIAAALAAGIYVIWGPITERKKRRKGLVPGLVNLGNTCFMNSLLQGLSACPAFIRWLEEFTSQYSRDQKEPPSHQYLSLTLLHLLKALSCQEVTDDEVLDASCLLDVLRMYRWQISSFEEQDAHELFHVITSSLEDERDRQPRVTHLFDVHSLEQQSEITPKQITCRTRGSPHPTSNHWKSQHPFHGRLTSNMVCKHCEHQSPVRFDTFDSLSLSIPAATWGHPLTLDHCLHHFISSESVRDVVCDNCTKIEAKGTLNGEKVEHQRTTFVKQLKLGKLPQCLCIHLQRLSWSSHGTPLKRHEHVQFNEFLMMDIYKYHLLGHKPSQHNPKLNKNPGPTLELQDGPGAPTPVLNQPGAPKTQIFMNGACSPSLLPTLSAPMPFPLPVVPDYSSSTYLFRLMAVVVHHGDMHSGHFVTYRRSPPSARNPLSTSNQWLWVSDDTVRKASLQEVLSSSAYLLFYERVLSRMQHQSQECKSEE

| IC50 | Compound |
| --- | --- |
| 27.4 µM | CCOc1ccc(NC(=O)Cn2cnc(S(=O)(=O)N3CCc4ccccc43)c2)cc1 |
| > 50 µM (inactive) | COc1cc(C(=O)Nc2ccc(-c3csc(C)n3)cc2)cc(OC)c1OC |
| > 50 µM (inactive) | O=C(COc1ccc(F)cc1)Nc1cc(F)c2nc(N3CCOCC3)ccc2c1 |
| 1.56 µM | O=C(Nc1ccc2c(c1)OCCO2)c1cccc2nc3ccccc3nc12 |
| 3.15 µM | Cc1ccc(NC(=O)Cc2nnc3c(-c4nc(C5CC5)no4)cccn23)cc1 |
| > 50 µM (inactive) | COc1cc(NC(=O)COC(=O)Cn2cnc3ccccc32)cc(OC)c1 |
| > 50 µM (inactive) | O=C(COC(=O)c1cc(Cl)c2c(c1)OCO2)Nc1ccc2[nH]c(=O)[nH]c2c1 |
| 39.7 µM | COc1ccccc1-c1nc(Cn2nnc(C(=O)Nc3cc(C)cc(C)c3)c2N)c(C)o1 |
| 14.8 µM | Cc1ccc(CN2C(=O)c3cc4ccccc4n3CC2(C)C(=O)NCc2ccccc2)o1 (stereo unspecified) |
| > 50 µM (inactive) | CC(C)Cc1cc(-c2nnc3sc(-c4ccco4)nn23)n[nH]1 |
| > 50 µM (inactive) | CCOc1ccc(NC(=O)COc2cccc(-n3cnnn3)c2)cc1 |
| 0.545 µM | Nc1c(C(=O)Nc2ccc3c(c2)OCO3)sc2nc(-c3cccnc3)ccc12 |
| > 50 µM (inactive) | Cc1ccc(C)c(-c2cc3c(=O)n(Cc4noc(CN5CCCCC5)n4)ccn3n2)c1 |
| > 50 µM (inactive) | Cc1cnc2nc3c(cc2c1)CN(CCc1ccc(Cl)cc1)CC3 |
| > 50 µM (inactive) | Cc1ccc(-c2nc(-c3ccccc3)c(S(=O)(=O)CC(=O)Nc3ccc(C)c(C)c3)[nH]2)cc1 |
| > 50 µM (inactive) | NS(=O)(=O)c1cc(C(=O)OCC(=O)c2ccc3c(c2)OCCO3)ccc1Cl |

| IC50 | Compound |
| --- | --- |
| > 50 µM (inactive) | COCC(=O)Nc1cc(F)c2nc(N3CCOCC3)ccc2c1 |
| 24.6 µM | COc1cccc(S(=O)(=O)N2CCn3nc(C(C)(C)C)cc3C2)c1 |
| 28.2 µM | COc1cccc(NC(=O)Nc2ccc(CCc3nc4ccccc4[nH]3)cc2)c1 |
| 4.04 µM | COc1ccc2c(c1)CCc1c-2n[nH]c1C(=O)Nc1cc(C)on1 |
| > 50 µM (inactive) | Cc1noc(-c2cc(=O)n(CC(=O)NCc3ccccc3)c3ccccc23)n1 |
| 2.24 µM | Cc1cc(C(=O)Nc2ccc3nc(N4CCN(c5ncccn5)CC4)cc(C)c3c2)ccc1[N+](=O)[O-] |
| 34 µM | Cc1ccc(OCC(=O)Nc2cccc(-c3nc4ncccc4o3)c2)c(C)c1 |
| > 50 µM (inactive) | O=c1ccc(-c2noc(-c3ccc4cc[nH]c4c3)n2)c[nH]1 |
| 2.29 µM | CNC(=O)c1cc2c(=O)n3cccc(C)c3nc2n1Cc1ccccc1 |
| 0.0686 µM | COc1ccc2cc3c(nc2c1)OC(=O)N(CCc1cccc(F)c1)C3 |
| 3.68 µM | CCOc1cc(N2CCOCC2)c(OCC)cc1NC(=O)c1cc(-c2ccncc2)nc2ccccc12 |
| > 50 µM (inactive) | Cc1cccc(NC(=O)Cn2c(-c3cnccn3)nc(C)c(C)c2=O)c1C |
| > 50 µM (inactive) | CCn1c(=O)c2ccccc2n(Cc2nc(-c3ccccc3OC)no2)c1=O |
| 48.2 µM | O=c1ncn(Cc2ccc3c(c2)OCO3)cc1-c1ncc(C(F)(F)F)cc1Cl |
| 35.6 µM | COc1ccccc1NC(=O)CNC(=O)c1nn(-c2ccc(OC)c(OC)c2)c(=O)c2ccccc12 |
| > 50 µM (inactive) | Cc1cc(O)c2c3c(c(O)cc2c1)C(=O)c1c(O)cccc1C3=O |

The next lines start with the compound.

| Compound | IC50 |
| --- | --- |
| CC1(C)Cc2c(c(-c3ccco3)nc3sc4c(SCCCc5ccccc5)ncnc4c23)CO1 | > 50 µM (inactive) |
| CC(C)OC(=O)c1cc2c(ccn2C)n1CC(=O)N1CCN(C(=O)c2ccco2)CC1 | > 50 µM (inactive) |
| COC(=O)c1cc2c(ccn2C)n1CC(=O)NC1CC1 | > 50 µM (inactive) |
| CC(C)(C)C(=O)Nc1ccc(SCc2nnc(-c3ccccc3)o2)cc1 | > 50 µM (inactive) |
| O=C(CCCC(=O)c1ccccc1)Nc1ccc(F)cc1 | 31.4 µM |
| COc1ccccc1S(=O)(=O)N1CC[C@@H]2CN(C)[C@@H]2C1 | 32.2 µM |
| Cn1c2ccccc2c2ncn(Cc3ccc(F)cc3)c(=O)c21 | 27.3 µM |
| N#Cc1ccc(NC(=O)COC(=O)c2ccc3ccccc3n2)cc1 | > 50 µM (inactive) |
| Cc1cccc(CNC(=O)C2CCCN(S(=O)(=O)Cc3ccc(F)cc3)C2)c1 (stereo unspecified) | 14.5 µM |
| CCOc1ccc(NC(=O)Cn2c(=O)n(CC(=O)NCc3ccc(C)cc3)c(=O)c3sccc32)cc1 | 0.465 µM |
| NS(=O)(=O)c1ccc(NS(=O)(=O)c2ccc(NC(=O)Nc3ccc(Cl)cc3)cc2)cc1 | 29.4 µM |
| O=c1c2cnc3nc(-c4cccnc4)nn3c2ccn1CCc1ccccc1 | > 50 µM (inactive) |
| CC1=C[C@@H](C)CC[C@H]2O[C@@H](C3=C(O)C(=O)C(C)=C4O[C@](O)(C=C43)[C@@H](C)C[C@H](C)C1)[C@H](C)[C@@H](O)[C@H]2C | 22.2 µM |
| Cc1ccc2c(c1)[C@]1(C(=O)N2)[C@@H]2C(=O)N(c3cccc(C(F)(F)F)c3)C(=O)[C@@H]2C2CCCN21 (stereo partly specified) | > 50 µM (inactive) |
| CN(C)c1ccc(/C=N/NC(=O)c2ccc(Cl)cc2)cc1 | 10.7 µM |
| CCNc1nc(SCC(C)=O)nc2sc3c(c12)CCC(C)C3 (stereo unspecified) | > 50 µM (inactive) |
| CCCc1nc2sc3c(NCCCN4CCOCC4)ncnc3c2c2c1CCC2 | > 50 µM (inactive) |

| Compound | IC50 |
| --- | --- |
| O=C(NCCn1ccc2ccccc21)c1cc2ccccc2oc1=O | 40.9 µM |
| Cc1ccc2nc(CNc3ccc(F)cc3C)cc(=O)n2c1 | > 50 µM (inactive) |
| O=[N+]([O-])c1ccc(NCc2ccc(-c3cccs3)s2)nc1 | 39.1 µM |
| C=C(NC(=O)C(=C)NC(=O)c1csc(C2=N[C@@H]3c4csc(n4)[C@H]4NC(=O)c5csc(n5)[C@H]([C@](C)(O)[C@@H](C)O)NC(=O)[C@H]5CSC(=N5)/C(=C/C)NC(=O)C([C@@H](C)O)NC(=O)c5csc(n5)C3(CC2)NC(=O)[C@H](C)NC(=O)C(=C)NC(=O)[C@H](C)NC(=O)C([C@@H](C)CC)N[C@@H]2C=Cc3c(C(C)O)cc(nc3[C@H]2O)C(=O)OC4C)n1)C(N)=O (stereo partly specified) | > 50 µM (inactive) |
| O=C(CSc1cn(Cc2ccccc2)c2ccccc12)Nc1ccc2c(c1)OCCO2 | > 50 µM (inactive) |
| Cc1ccc(-c2cn(CC(=O)N3CCN(c4ccccn4)CC3)c(=O)o2)cc1 | 12.3 µM |
| CCOC(=O)c1c(C)nc2n(Cc3ccccc3)c3ccccc3n12 | 17.9 µM |
| O=C(Nc1cccc2ccccc12)C1CCCN(S(=O)(=O)Cc2ccccc2)C1 (stereo unspecified) | 4.36 µM |
| CN(C)S(=O)(=O)N1CCCC2(C1)Nc1cccnc1NC2=NC1CCCC1 (stereo unspecified) | > 50 µM (inactive) |
| O=S(=O)(c1cccc2cccnc12)N(CCc1ccccc1)C1CCN(CCc2ccc(Cl)cc2)CC1 | > 50 µM (inactive) |
| O=S(=O)(Nc1ccc(O)cc1)c1ccc2oc3ccc(S(=O)(=O)Nc4ccc(O)cc4)cc3c2c1 | 26.5 µM |
| COCCCn1c(SCC(=O)Nc2ccccc2C(=O)OC)nc2ccccc2c1=O | 25.7 µM |
| CCn1c(=N)n(CCOc2ccc(F)cc2)c2ccccc21 | 31.8 µM |
| COc1ccccc1CNC(=O)C1CCCN(c2nc3ccsc3c(=O)s2)C1 (stereo unspecified) | 3.45 µM |
| CC1=C2C(=NCCN1)C(=O)N(c1ccccc1)C2c1cccnc1 (stereo unspecified) | > 50 µM (inactive) |
| CN(CCCNC(=O)c1cccc2c1SCCC2=O)c1ccccc1 | > 50 µM (inactive) |
| O=C(Cn1c(CSc2ccccc2)nc2ccccc21)Nc1ccccc1F | > 50 µM (inactive) |
